Here are results for 34 compounds from publication PMC10987949, “Inhibition of HIV-1 release by ADAM metalloproteinase inhibitors” (Frontiers in Microbiology, 2024).

“Also recorded” adds a separate entry of the source. Where a SMILES comes first, the peptide text is derived from it. [ ]: non-standard residue; d: D form. The star is where a group is joined. Sta = CC(C)C[C@H](N)[C@@H](O)CC(=O)O; Isovaleryl = CC(C)CC(=O)*; 4Abz = Nc1ccc(C(=O)O)cc1; Cbz = O=C(OCc1ccccc1)*; CH2Cl = ClC*; NHOH = ON*

The first series deals with HIV-1BAL. The experiment in a line: HIV-1BAL infection of CD8-depleted PBMC, FACS (intracellular p24, CD4, CD62L). The settings on record: HIV-1BAL infected cells. The class given is cell-based. The text has this: The use of healthy human peripheral blood mononuclear cells (PBMC) is approved by the Department of Transfusion Medicine at the Clinical Center of National Institutes of Health. The use of PBMC from HIV-1 infected individuals for the study was approved under protocol #02-I-0202 by the Institutional Review Board (IRB) of National Institutes of Health with written informed consent from all donors. Peripheral blood mononuclear cells (PBMCs) from anonymous healthy donors were isolated by Ficoll-Paque gradient, and cultured in RPMI 1640 supplemented with 10% FBS, 1%Penicillin/streptomycin, 1% HEPES buffer and 20 U/mL IL-2 (culture media); and stimulated with 0.2 μg/mL anti-CD3 antibody (okt3) for 2 days. CD8^+ T cells were depleted prior to infection using the Stemcell CD8 positive selection kit according to manufacturer’s instructions. CD8-depleted PBMCs were plated at 2×10^6 cells/ml in 48-well plates in 1 mL culture media with various inhibitors for 60 min prior to the addition of ~80 TCID50 HIV-1BAL or HIV-1LAI. Inhibitors were replenished during media change every 3 days. The infections were proceeded with or without inhibitors for 6 days or otherwise specified number of days and then analyzed by FACS staining using fluorescent labeled CD4-BV510, CD62L-APC and CD3-PEC7 antibodies (BD Biosciences). Cells were then washed and permeabilized with CytoFix/CytoPerm (BD Biosciences) solution before intracellular staining for HIV p24 antigen using FITC conjugated anti-p24 antibody clone KC57 (Beckman Coulter, catalog 6604665). All assays were performed with cell viabilities >80%. Replication competent HIV-1 viruses were obtained from the NIH AIDS Reagent Program^4, and expanded by infecting activated CD8-depleted PBMCs, and TCID50 was determined by p24 ELISA.
Turning to `CC(C)C[C@H](CC(=O)NO)C(=O)N[C@@H](Cc1ccc2ccccc2c1)C(=O)N[C@@H](C)C(N)=O` [TAPI-0], the “accumulation of infected CD4−/CD62L− T cells (loss of CD62L)” value is given as “did not inhibit the accumulation”.

Staying with this series, now noted: day 6; 0.5μM compounds.
For `C[C@@H]1CCO[C@H]2Cn3cc(C(=O)NCc4ccc(F)cc4F)c(=O)c(O)c3C(=O)N12` [Doultegravir], the “p24 staining in HIV-1BAL infection of PBMC” value is recorded as “no significant staining”.

The same series, now with this note: day 7 post infection; compounds at 100 μM, GI254023X at 250 μM.
For the compound `O=c1oc(Cl)c(Cl)c2ccccc12` [3,4-DCIC, 3,4-Dichloroisocouman], the “effect on HIV-1BAL infection (intracellular p24)” value is “did not enhance HIV-1 infection”.
Still for that read-out and setting: next, `CC(C)C[C@H](CC(=O)NO)C(=O)N[C@@H](Cc1ccc2ccccc2c1)C(=O)N[C@@H](C)C(N)=O` [TAPI-0]: “fail to significantly suppress the viral infections”.

The next series deals with CD62L shedding. The experiment in a line: Soluble CD62L ELISA, unstimulated PBMC. The series is classed as cell-based, human. The conditions noted are these: 10 μM compound; non-stimulated cells; ELISA. The procedure: PBMC from de-identified healthy donors were obtained with informed consent from the Department of Transfusion Medicine, National Institutes of Health under Biological reagent Registry RD-14-IX-12 approved by NIH biological safety board. CD8-depleted PBMCs, either stimulated or non-stimulated with 10 μg/mL phytohaemagglutinin (PHA) or anti-CD3 antibody (with or without conjugated beads), were plated at 2×10^6 cells/ml in 48 well plates in RPMI 1640 + 10%FBS (R10) to a final volume of 1 mL in each well. IL-2 was added at a final concentration of 20 U/mL. CD3 antibody okt3 was used at ~0.2 μg/mL final concentration. […] Supernatants were collected and assessed using either the CD62L or TNF-α Duo Set ELISA kit according to manufacturer's instructions (R&D Systems, Inc.). The viability of cells treated with compounds was assessed by acridine orange / propidiom iodide (AO/PI Logosbio catalog F23001) staining using Luna-FL cell counter following the manufacture's instruction.^2 […] Supplemental Figure 1. CD62L shedding from unstimulated PBMC. A) Soluble CD62L in the supernatant of unstimulated PBMC was measured By ELISA (R&D systems, Inc) after 24 hour treatment in the presence of 10 μM of […]), aminopeptidase (AP) protease inhibitors, respectively, or their untreated controls. Statistics were calculated using unpaired parametric student t-test between individual treatment and DMSO control. […] B) Viability of PBMC treated with 10-500 μM of MMP inhibitors for 24hours. […] Untreated DMSO AEBSF 3,4-Dichloroisocouman Granzyme B Inhibitor II Granzyme B Inhibitor IV Aprotinin […] 3 4 CD62L shedding from unstimulated PBMC Soluble CD62L (ng/ml) Inhibitor Class […] GI254023X 10 GI254023X 100 […] GI254023X 1000 GW280264X 10 GW280264X 100 […] GW280264X 1000 Marimastat 10 Marimastat 100 Marimastat 250 […]
Take `Cc1cc(CCC[C@H](CC(=O)NO)C(=O)N[C@H](C(=O)N[C@H](C)c2ccccc2)C(C)(C)C)ccc1-c1ccccc1` [UK-356618, (2R)-N1-[(1S)-2,2-Dimethyl-1-({[(1R)-1-phenylethyl]amino}carbonyl)propyl]-2-{3-[(3-methyl-4-phenyl)-phenyl]propyl}-(N4-hydroxy)butanediamide]: the “Shedding inhibition Non-stim.” value is “− (0% inhibition)”.

Staying with this series, now noted: 100 μM compound; non-stimulated cells; ELISA.
On to `CCOCOC[C@H](C[C@H](C)C(=O)NO)NC(=O)c1ccc(Oc2ccccc2)cc1` [ONO-4817], for which the “Shedding inhibition Non-stim.” value was “+ (20–50)”.

The test system of another series is CD62L shedding. The experiment in a line: Soluble CD62L ELISA, anti-CD3/PHA stimulated PBMC or CD4 T cells. The series is classed as cell-based, human. The conditions noted are these: 10 μM compound; stimulated cells; ELISA. The procedure:
PBMC from de-identified healthy donors were obtained with informed consent from the Department of Transfusion Medicine, National Institutes of Health under Biological reagent Registry RD-14-IX-12 approved by NIH biological safety board. […] IL-2 was added at a final concentration of 20 U/mL. CD3 antibody okt3 was used at ~0.2 μg/mL final concentration. […] Supernatants were collected and assessed using either the CD62L or TNF-α Duo Set ELISA kit according to manufacturer’s instructions (R&D Systems, Inc.). The viability of cells treated with compounds was assessed by acridine orange / propidiom iodide (AO/PI Logosbio catalog F23001) staining using Luna-FL cell counter following the manufacture’s instruction.^2
Regarding `NC(=O)CI` [Iodoacetamide], the “Shedding inhibition Stimulated” value is “− (0% inhibition)”.
Take Cystatin: the “Shedding inhibition Stimulated” value is “− (0% inhibition)”.
Turning to `CC(C)C[C@H](CC(=O)NO)C(=O)N[C@@H](Cc1ccc2ccccc2c1)C(=O)N[C@@H](C)C(=O)NCCN` [TAPI-1], the “Shedding inhibition Stimulated” value is given as “++ (>50%)”.
On the same count and under the same terms, as for `CC(C)C[C@H](CC(=O)NO)C(=O)N[C@H](C(=O)N[C@@H](C)C(=O)NCCN)C(C)(C)C` [TAPI-2], the entry is “++ (>50%)”; as for `Cc1cc(CCC[C@H](CC(=O)NO)C(=O)N[C@H](C(=O)N[C@H](C)c2ccccc2)C(C)(C)C)ccc1-c1ccccc1` [UK-356618, (2R)-N1-[(1S)-2,2-Dimethyl-1-({[(1R)-1-phenylethyl]amino}carbonyl)propyl]-2-{3-[(3-methyl-4-phenyl)-phenyl]propyl}-(N4-hydroxy)butanediamide], “− (0% inhibition)”.
For `CC(C)C[C@@H](NC(=O)[C@@H]1CCCN1C(=O)CNC(=O)c1ccc(N)cc1)C(=O)N[C@@H](C)C(=O)NO` [Compound 4-m-GPDLA, 4-aminobenzoyl-Gly-Pro-D-Leu-ala hydroxamic acid] (H-[4Abz]GP[dL]A-{NHOH}), the “Shedding inhibition Stimulated” value is listed as “− (0% inhibition)”.
As for `O=c1oc(Cl)c(Cl)c2ccccc12` [3,4-DCIC, 3,4-Dichloroisocouman], the “Shedding inhibition Stimulated” value is recorded as “− (0% inhibition)”.
`COc1ccc(S(=O)(=O)N(CC(=O)NO)CC(C)C)cc1` [NNGH, N-Isobutyl-N-(4-methoxyphenylsulfonyl)glycyl hydroxamic acid]: the “Shedding inhibition Stimulated” value is “− (0% inhibition)”.
On to `O=S(=O)(F)Cc1ccccc1` [PMSF], for which the “Shedding inhibition Stimulated” value is reported as “− (0% inhibition)”.
As for `C[C@H](NC(=O)OCc1ccccc1)C(=O)N[C@@H](C)C(=O)N[C@@H](CC(=O)O)C(=O)CCl` [GrzB I] (Cbz-Ala-Ala-Asp-CH2Cl), the “Shedding inhibition Stimulated” value is given as “− (0% inhibition)”.
As to `CC[C@H](C)[C@H](NC(C)=O)C(=O)N[C@@H](CCC(=O)O)C(=O)N[C@H](C(=O)N[C@H](C=O)CC(=O)O)[C@@H](C)O` [GrzB II] (Ac-IETD-aldehyde), the “Shedding inhibition Stimulated” value is given as “− (0% inhibition)”.
As for `CC[C@H](C)[C@H](NC(C)=O)C(=O)N[C@@H](CCC(=O)O)C(=O)N1CCC[C@H]1C(=O)N[C@H](C=O)CC(=O)O` [GrzB IV] (Ac-IEPD-aldehyde), the “Shedding inhibition Stimulated” value is reported as “− (0% inhibition)”.
On to `CC(C)(C)OC(=O)N[C@H]1[C@@H]2CNC[C@@H]21` [CP-101537, N-(1a,5a,6a)-3-Azabicyclo[3.1.0]hex-6-yl-carbamic acid 1,1-dimethylethyl ester], for which the “Shedding inhibition Stimulated” value is recorded as “− (0% inhibition)”.
As for Aprotinin, the “Shedding inhibition Stimulated” value was “− (0% inhibition)”.
The same measure, in the same setting: as for `O=S(=O)(CC1CS1)c1ccc(Oc2ccccc2)cc1` (stereo not shown) [SB-3CT], the entry is “− (0% inhibition)”; as for `CC(C)C[C@H](NC(=O)[C@H]1O[C@@H]1C(=O)O)C(=O)NCCCCN=C(N)N` [Compound E64], “− (0% inhibition)”.
On to `CC(C)C[C@H](CC(=O)NO)C(=O)N[C@@H](Cc1ccc2ccccc2c1)C(=O)N[C@@H](C)C(N)=O` [TAPI-0], for which the “Shedding inhibition Stimulated” value was “++ (>50%)”.
On the same count and under the same terms, next, `NCCc1ccc(S(=O)(=O)F)cc1` [AEBSF]: “− (0% inhibition)”.

Still in this series, the particulars now being: 100 μM compound; stimulated cells; ELISA.
On to `CCOCOC[C@H](C[C@H](C)C(=O)NO)NC(=O)c1ccc(Oc2ccccc2)cc1` [ONO-4817], for which the “Shedding inhibition Stimulated” value is on record as “+/− (<20)”.

Still in this series, the particulars now being: Homo sapiens; 10 μM compound; stimulated cells; ELISA.
What is called inhibition is the share of the control response that was lost under treatment. For `CC(=O)N[C@@H](CC(C)C)C(=O)N[C@@H](CC(C)C)C(=O)N[C@H](C=O)CCCNC(=N)N` [Leupeptin], testing at 10 µM gave an inhibition of 0%.
On the same count and under the same terms, next, `CC(C)CC(=O)N[C@H](C(=O)N[C@H](C(=O)N[C@@H](CC(C)C)[C@@H](O)CC(=O)N[C@@H](C)C(=O)N[C@@H](CC(C)C)[C@@H](O)CC(=O)O)C(C)C)C(C)C` [Pepstatin A] (Isovaleryl-VV[Sta]A[Sta]-OH): 0%.
Regarding `CC(C)[C@H](NS(=O)(=O)c1ccc(-c2ccc(Br)cc2)cc1)C(=O)O` [PD166793, (S)-2-(4′-Bromo-biphenyl-4-sulfonylamino)-3-methyl-butyric acid hydrate], the inhibition at 10 µM was determined as 0%.
Regarding `CC(C)C[C@H](NC(=O)[C@@H](O)[C@H](N)Cc1ccccc1)C(=O)O` [Bestatin], the inhibition at 10 µM was determined as 0%.
Consider `C[C@H]1c2cccc(O)c2C(=O)C2=C(O)[C@]3(O)C(=O)C(C(N)=O)=C(O)[C@@H](N(C)C)[C@@H]3[C@@H](O)[C@@H]21` [Doxycycline], for which the inhibition at 10 µM is 0%.
Compound `CCCC(C)NC(=O)c1ccc(Cl)c(Cl)c1` (stereo not shown) [NSC405020, 3,4-Dichloro-N-(1-methylbutyl)-benzamide] displayed an inhibition at 10 µM of 0%.
Still for that read-out and setting: as for `CC(C)(NS(=O)(=O)c1ccc(Oc2ccc(F)cc2)cc1)C(=O)NO` [CP-471474, 2-[[[4-(4-Fluorophenoxy)phenyl]sulfonyl]amino]-N-hydrox y-2-methylpropanamide], the figure is 0%; as for `N=C(N)c1ccc2cc(OC(=O)c3ccc(N=C(N)N)cc3)ccc2c1` [Nafamostat], 0%; as for `CC1(c2ccccc2)NC(=O)NC1=O` (stereo not shown) [Compound 5-m-5-p, 5-methyl-5-phenylhydantoin], 0%.
In the case of `OB(O)c1ccc2[nH]ccc2c1` [Compound 5-Indolylb, 5-indolylboronic acid], at 10 µM the inhibition was 0%.
`CC(C)ON([C@@H](C(=O)NO)C(C)C)S(=O)(=O)c1ccc(-c2ccccc2)cc1` [ARP 101, (2R)-2-[([1,1′-Biphenyl]-4-ylsulfonyl)(1-methylethoxy)amino]-N-hydroxy-3-methyl-butanamide] yielded an inhibition at 10 µM of less than 20%.

The series is the same for the next values; noted with them: stimulated PBMC or CD4 T cells, ELISA.
For `O=c1oc(Cl)c(Cl)c2ccccc12` [3,4-DCIC, 3,4-Dichloroisocouman], the “effect on CD62L shedding / soluble CD62L” value was “significantly increased soluble CD62L concentration; also recorded: enhanced CD62L shedding”.
As for TAPI, the “effect on CD62L shedding / soluble CD62L” value is reported as “suppressed CD62L shedding”.

Still in this series, the particulars now being: titration of HAART compounds, concentration range tested.
Turning to `Cc1ccnc2c1NC(=O)c1cccnc1N2C1CC1` [nevirapine], the “effect on CD62L shedding from stimulated PBMC” value is “did not inhibit CD62L shedding”.
In the case of `Cc1nnc(C(=O)NC(C)(C)c2nc(C(=O)NCc3ccc(F)cc3)c(O)c(=O)n2C)o1` [raltegravir], the “effect on CD62L shedding from stimulated PBMC” value was “did not inhibit CD62L shedding”.
